{"source": "paper PMC7471466", "about": "(Acta Pharmacologica Sinica, 2020)", "key": {"[1]": {"conditions": "patients, high dose (>50 mg MTX/kg) therapy regimens; cited from earlier work"}, "AOX3 mRNA [2]": {"system": "AOX3 mRNA", "conditions": "rat hepatocytes, 0–20 μM NIM for 24 h"}, "AOX1 [3]": {"system": "AOX1", "conditions": "rat hepatocytes, 0–20 μM NIM for 24 h, concentration-dependent"}, "AOX1 [4]": {"system": "AOX1", "conditions": "rat livers, 20, 50, 100 mg·kg−1·d−1 NIM for 5 days, dose-dependent"}, "AOX [5]": {"system": "AOX", "conditions": "NIM 5–20 μM directly added to the RLC incubation of MTX"}, "AOX3 [6]": {"system": "AOX3", "conditions": "rat hepatocytes, 0–20 μM NIM for 24 h, concentration-dependent"}, "AOX1 mRNA": {"system": "AOX1 mRNA", "conditions": "rat hepatocytes, 0–20 μM NIM for 24 h"}, "AOX [7]": {"system": "AOX", "assay_type": "cell-based, human", "conditions": "for increase in 7-OH MTX yields vs control: human hepatocytes"}, "[8]": {"system": "sandwich-cultured rat hepatocytes", "conditions": "concentration-dependent"}, "MRP2": {"system": "MRP2", "conditions": "cited from earlier work"}, "AOX [9]": {"system": "AOX"}, "rat hepatocytes": {"system": "rat hepatocytes", "conditions": "read-out: IC50 (toxic to hepatocytes); cited from earlier work"}, "AOX3 mRNA [10]": {"system": "AOX3 mRNA", "conditions": "rat livers, 20, 50, 100 mg·kg−1·d−1 NIM for 5 days"}, "OATPs": {"system": "OATPs", "conditions": "cited from earlier work"}, "AOX3 [11]": {"system": "AOX3", "conditions": "rat livers, 20, 50, 100 mg·kg−1·d−1 NIM for 5 days, dose-dependent"}, "human hepatocytes": {"system": "human hepatocytes", "conditions": "read-out: IC50 (toxic to hepatocytes); cited from earlier work"}, "AOX [12]": {"system": "AOX", "assay": "AOX activity in rat hepatocytes, 7-OH MTX formation from probe substrate MTX", "assay_type": "cell-based", "conditions": "for increase in 7-OH MTX yield vs control: then MTX 50 μM"}, "[13]": {"conditions": "NIM-treated rats, 100 mg·kg−1·d−1, 5 days, vs nontreated rats"}}, "note": "Where two headings read alike, the source gives them in different places."}
{"smiles": "CN(Cc1cnc2nc(N)nc(N)c2n1)c1ccc(C(=O)N[C@@H](CCC(=O)O)C(=O)O)cc1", "note": "[MTX, methotrexate]", "values": [{"measurement": "MTX excreted as 7-OH MTX", "setting": "[1]", "result": "≤ 33", "unit": "%"}]}
{"smiles": "CS(=O)(=O)Nc1ccc([N+](=O)[O-])cc1Oc1ccccc1", "note": "[NIM, nimesulide]", "values": [{"measurement": "AOX3 mRNA level", "setting": "AOX3 mRNA [2]", "result": "did not alter"}, {"measurement": "AOX1 protein level", "setting": "AOX1 [3]", "result": "increased"}, {"measurement": "AOX1 protein level", "setting": "AOX1 [4]", "result": "increased"}, {"measurement": "7-OH MTX formation vs incubation containing no NIM", "setting": "AOX [5]", "result": "no significant difference"}, {"measurement": "AOX3 protein level", "setting": "AOX3 [6]", "result": "decreased"}, {"measurement": "AOX1 mRNA level", "setting": "AOX1 mRNA", "result": "did not alter"}, {"measurement": "increase in 7-OH MTX yields vs control", "setting": "AOX [7]; 10 μM NIM for 24 h", "result": 1.3, "unit": "fold"}, {"measurement": "increase in 7-OH MTX yields vs control", "setting": "AOX [7]; 50 μM NIM for 24 h", "result": 1.7, "unit": "fold"}, {"measurement": "increase in 7-OH MTX yields vs control", "setting": "AOX [7]; 100 μM NIM for 24 h", "result": 2.0, "unit": "fold"}, {"measurement": "increase in 7-OH MTX formation", "setting": "AOX [7]; primary human hepatocytes, NIM (20 μM) for 24 h", "result": 2.0, "unit": "fold"}, {"measurement": "cellular plus biliary accumulation of MTX", "setting": "[8]", "result": "reduced"}, {"measurement": "inhibition of MRP2", "setting": "MRP2", "result": "inhibitor"}, {"measurement": "increase in AOX-mediated metabolite from JNJ-38877605 in liver cytosol", "setting": "AOX [9]; [13]", "result": 3.8, "unit": "fold"}, {"measurement": "increase in AOX-mediated metabolite from SGX523 in liver cytosol", "setting": "AOX [9]; [13]", "result": 3.4, "unit": "fold"}, {"measurement": "increase in AOX-mediated metabolite from phthalazine in liver cytosol", "setting": "AOX [9]; [13]", "result": 2.5, "unit": "fold"}, {"measurement": "increase in 7-OH MTX formation in liver cytosol vs vehicle", "setting": "AOX [9]; rats pretreated with 20 mg·kg−1·d−1 NIM for 5 days", "result": 1.9, "unit": "fold"}, {"measurement": "increase in 7-OH MTX formation in liver cytosol vs vehicle", "setting": "AOX [9]; rats pretreated with 50 mg·kg−1·d−1 NIM for 5 days", "result": 3.2, "unit": "fold"}, {"measurement": "increase in 7-OH MTX formation in liver cytosol vs vehicle", "setting": "AOX [9]; rats pretreated with 100 mg·kg−1·d−1 NIM for 1 day", "result": 1.0, "unit": "fold"}, {"measurement": "increase in 7-OH MTX formation in liver cytosol vs vehicle", "setting": "AOX [9]; rats pretreated with 100 mg·kg−1·d−1 NIM for 3 days", "result": 2.0, "unit": "fold"}, {"measurement": "increase in 7-OH MTX formation in liver cytosol vs vehicle", "setting": "AOX [9]; rats pretreated with 100 mg·kg−1·d−1 NIM for 5 days (dose experiment)", "result": 3.7, "unit": "fold"}, {"measurement": "increase in 7-OH MTX formation in liver cytosol vs vehicle", "setting": "AOX [9]; rats pretreated with 100 mg·kg−1·d−1 NIM for 5 days (time experiment)", "result": 3.8, "unit": "fold"}, {"measurement": "IC50", "setting": "rat hepatocytes", "result": 40, "unit": "µM"}, {"measurement": "AOX3 mRNA level", "setting": "AOX3 mRNA [10]", "result": "no significant alteration"}, {"measurement": "inhibition of OATPs", "setting": "OATPs", "result": "inhibitor"}, {"measurement": "AOX3 protein level", "setting": "AOX3 [11]", "result": "decreased"}, {"measurement": "IC50", "setting": "human hepatocytes", "result": 213, "unit": "µM"}, {"measurement": "increase in 7-OH MTX yields vs control", "setting": "AOX [12]; 5 μM NIM for 24 h", "result": 1.3, "unit": "fold"}, {"measurement": "increase in 7-OH MTX yields vs control", "setting": "AOX [12]; 10 μM NIM for 24 h", "result": 1.8, "unit": "fold"}, {"measurement": "increase in 7-OH MTX yield vs control", "setting": "AOX [12]; 20 μM NIM for 12 h", "result": 1.7, "unit": "fold"}, {"measurement": "increase in 7-OH MTX yields vs control", "setting": "AOX [12]; 20 μM NIM for 24 h (concentration experiment)", "result": 3.1, "unit": "fold"}, {"measurement": "increase in 7-OH MTX yield vs control", "setting": "AOX [12]; 20 μM NIM for 24 h (induction time experiment)", "result": 2.5, "unit": "fold"}, {"measurement": "increase in 7-OH MTX yield vs control", "setting": "AOX [12]; 20 μM NIM for 48 h", "result": 2.7, "unit": "fold"}, {"measurement": "increase in 7-OH MTX yield vs control", "setting": "AOX [12]; 20 μM NIM for 72 h", "result": 2.7, "unit": "fold"}, {"measurement": "increase in accumulated excretion of 7-OH MTX in 0–24 h feces", "setting": "male, Wistar, rat, feces, oral", "result": 2.1, "unit": "fold"}, {"measurement": "increase in accumulated excretion of 7-OH MTX in 0–24 h urine", "setting": "male, Wistar, rat, urine, oral", "result": 5.2, "unit": "fold"}, {"measurement": "increase in accumulated excretion of MTX in 0–24 h urine", "setting": "male, Wistar, rat, urine, oral", "result": 1.8, "unit": "fold"}, {"measurement": "accumulated excretion of MTX in 0–24 h feces", "setting": "rats, 100 mg·kg−1·d−1 NIM for 5 days, then oral MTX 50 mg/kg", "result": "no significant change"}]}
